Experimental data taken from US11572590B2, “Methods for evaluating tumor cell spheroids using 3D microfluidic cell culture device” (Dana-Farber Cancer Institute, Inc., priority 2017, dated 2023).
Where two headings read alike, the source gives them in different places.

Key:
Assay in all cases: SelectScreen Kinase Profiling, single point inhibition and IC50 for off-target kinases
Format in all cases: biochemical
off-target kinases [1] = target: T1, off-target kinases (Homo sapiens, UniProt O00141); conditions: SGK (SGK1), ZLYTE, ATP Km app
T1 sequence (O00141 1-431): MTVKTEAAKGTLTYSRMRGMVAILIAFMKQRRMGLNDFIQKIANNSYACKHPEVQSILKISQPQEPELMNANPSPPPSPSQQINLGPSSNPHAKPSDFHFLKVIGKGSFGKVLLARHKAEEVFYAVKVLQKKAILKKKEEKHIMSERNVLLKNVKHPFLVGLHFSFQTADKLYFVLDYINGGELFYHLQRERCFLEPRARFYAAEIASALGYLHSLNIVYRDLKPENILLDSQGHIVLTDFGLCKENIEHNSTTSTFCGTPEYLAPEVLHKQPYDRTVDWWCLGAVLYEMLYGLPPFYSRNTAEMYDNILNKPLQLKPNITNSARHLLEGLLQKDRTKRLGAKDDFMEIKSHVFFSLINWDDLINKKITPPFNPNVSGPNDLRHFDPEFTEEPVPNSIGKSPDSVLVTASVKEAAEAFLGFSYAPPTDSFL

off-target kinases [2] = target: off-target kinases (Homo sapiens, UniProt Q04912); conditions: MST1R (RON), ZLYTE, ATP Km app
off-target kinases (Homo sapiens, UniProt Q04912), sequence (Q04912 25-1400): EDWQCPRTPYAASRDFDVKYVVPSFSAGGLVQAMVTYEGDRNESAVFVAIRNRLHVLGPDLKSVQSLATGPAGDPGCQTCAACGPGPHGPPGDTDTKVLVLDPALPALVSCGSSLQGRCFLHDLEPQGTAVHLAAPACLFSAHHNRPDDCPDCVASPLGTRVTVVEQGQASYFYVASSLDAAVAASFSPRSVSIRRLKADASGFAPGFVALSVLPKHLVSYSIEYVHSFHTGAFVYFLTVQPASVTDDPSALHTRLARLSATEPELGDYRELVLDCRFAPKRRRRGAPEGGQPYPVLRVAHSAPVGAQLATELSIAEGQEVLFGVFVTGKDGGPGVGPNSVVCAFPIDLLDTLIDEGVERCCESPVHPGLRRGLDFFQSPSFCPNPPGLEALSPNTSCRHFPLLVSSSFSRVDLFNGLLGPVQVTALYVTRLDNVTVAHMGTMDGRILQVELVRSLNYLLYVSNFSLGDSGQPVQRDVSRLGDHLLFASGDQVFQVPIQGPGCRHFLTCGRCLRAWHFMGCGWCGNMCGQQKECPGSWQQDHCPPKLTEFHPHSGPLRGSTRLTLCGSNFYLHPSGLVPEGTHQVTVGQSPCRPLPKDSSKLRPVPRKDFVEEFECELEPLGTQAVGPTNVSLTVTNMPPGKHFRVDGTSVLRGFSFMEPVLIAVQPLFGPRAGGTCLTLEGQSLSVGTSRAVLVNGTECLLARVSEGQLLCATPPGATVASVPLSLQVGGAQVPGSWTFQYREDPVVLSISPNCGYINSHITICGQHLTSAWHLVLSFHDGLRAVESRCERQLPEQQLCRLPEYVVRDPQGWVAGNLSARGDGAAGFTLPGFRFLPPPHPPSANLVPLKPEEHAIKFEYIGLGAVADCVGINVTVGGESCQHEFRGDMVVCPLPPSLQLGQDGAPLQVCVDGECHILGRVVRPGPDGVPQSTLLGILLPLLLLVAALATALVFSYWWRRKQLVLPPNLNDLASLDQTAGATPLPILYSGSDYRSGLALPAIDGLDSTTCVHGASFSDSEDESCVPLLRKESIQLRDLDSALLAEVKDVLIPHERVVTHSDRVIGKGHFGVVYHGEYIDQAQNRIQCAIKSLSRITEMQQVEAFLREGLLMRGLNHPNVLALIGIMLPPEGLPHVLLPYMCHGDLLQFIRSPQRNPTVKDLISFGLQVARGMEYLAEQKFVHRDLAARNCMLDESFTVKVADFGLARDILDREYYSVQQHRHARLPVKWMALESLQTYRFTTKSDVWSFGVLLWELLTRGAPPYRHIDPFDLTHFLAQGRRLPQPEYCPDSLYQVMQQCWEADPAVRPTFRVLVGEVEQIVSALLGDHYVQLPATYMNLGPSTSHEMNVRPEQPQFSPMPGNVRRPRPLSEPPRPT

off-target kinases [3] = target: T2, off-target kinases (Homo sapiens, UniProt Q12851); conditions: MAP4K2 (GCK), ZLYTE, ATP Km app
T2 sequence (Q12851 1-820): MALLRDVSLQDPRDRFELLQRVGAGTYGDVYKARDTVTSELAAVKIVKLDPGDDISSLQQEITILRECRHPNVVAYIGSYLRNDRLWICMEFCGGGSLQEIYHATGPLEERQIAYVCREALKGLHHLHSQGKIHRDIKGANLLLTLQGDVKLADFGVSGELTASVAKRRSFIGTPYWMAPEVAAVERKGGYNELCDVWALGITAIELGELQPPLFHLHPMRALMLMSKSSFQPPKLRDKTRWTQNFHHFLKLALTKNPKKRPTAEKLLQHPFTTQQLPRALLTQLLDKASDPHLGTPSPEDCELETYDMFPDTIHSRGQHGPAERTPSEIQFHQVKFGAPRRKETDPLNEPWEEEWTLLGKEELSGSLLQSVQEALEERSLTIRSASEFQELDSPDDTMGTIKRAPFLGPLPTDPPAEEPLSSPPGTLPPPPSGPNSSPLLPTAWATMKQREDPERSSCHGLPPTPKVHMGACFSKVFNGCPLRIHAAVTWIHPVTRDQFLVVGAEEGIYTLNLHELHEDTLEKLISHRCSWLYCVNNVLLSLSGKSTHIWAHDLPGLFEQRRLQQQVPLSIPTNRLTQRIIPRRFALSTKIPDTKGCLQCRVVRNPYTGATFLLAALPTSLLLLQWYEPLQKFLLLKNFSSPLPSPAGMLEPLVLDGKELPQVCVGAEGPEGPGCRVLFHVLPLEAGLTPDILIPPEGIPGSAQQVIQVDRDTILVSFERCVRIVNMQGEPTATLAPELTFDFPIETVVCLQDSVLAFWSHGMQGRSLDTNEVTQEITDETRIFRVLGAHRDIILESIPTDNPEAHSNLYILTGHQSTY

off-target kinases [4] = target: off-target kinases (Homo sapiens, UniProt Q14012); conditions: CAMK1 (CaMK1), Adapta, ATP 10
off-target kinases (Homo sapiens, UniProt Q14012), sequence (Q14012 whole entry): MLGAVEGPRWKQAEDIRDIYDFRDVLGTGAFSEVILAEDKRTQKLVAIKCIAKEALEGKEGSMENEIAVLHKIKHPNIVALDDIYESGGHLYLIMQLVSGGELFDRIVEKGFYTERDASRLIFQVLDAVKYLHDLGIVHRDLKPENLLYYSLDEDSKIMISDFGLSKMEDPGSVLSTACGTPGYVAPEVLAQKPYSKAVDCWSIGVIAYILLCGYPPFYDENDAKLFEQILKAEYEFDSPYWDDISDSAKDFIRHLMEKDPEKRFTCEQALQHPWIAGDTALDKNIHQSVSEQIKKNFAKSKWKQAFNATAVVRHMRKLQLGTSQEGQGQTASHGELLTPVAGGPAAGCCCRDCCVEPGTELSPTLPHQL

Compound: N#Cc1cc(-c2ncnc(Nc3ccc(N4CCN(C5COC5)CC4)cc3)n2)ccc1OC1CCOCC1 [Compound 1, 5-(4-((4-(4-(oxetan-3-yl)piperazin-1-yl)phenyl)amino)-1,3,5-triazin-2-yl)-2-((tetrahydro-2H-pyran-4-yl)oxy)benzonitrile]
- inhibition (off-target kinases [1]; read-out: % Inhibition 1): 28%
- inhibition (off-target kinases [1]; read-out: % Inhibition 2): 26%
- inhibition (off-target kinases [1]; read-out: % Inhibition Avg): 27%
- inhibition (off-target kinases [2]; read-out: % Inhibition 1): 38%
- inhibition (off-target kinases [2]; read-out: % Inhibition 2): 38%
- inhibition (off-target kinases [2]; read-out: % Inhibition Avg): 38%
- inhibition (off-target kinases [3]; read-out: % Inhibition 1): 6%
- inhibition (off-target kinases [3]; read-out: % Inhibition 2): -2%
- inhibition (off-target kinases [3]; read-out: % Inhibition Avg): 2%
- inhibition (off-target kinases [4]; read-out: % Inhibition 1): 7%
- inhibition (off-target kinases [4]; read-out: % Inhibition 2): 8%
- inhibition (off-target kinases [4]; read-out: % Inhibition Avg): 7%
